In patent US8163929B2, “Dihydropyridone amides as P2X7 modulators” (Roche Palo Alto LLC, priority 2008, dated 2012) one finds pIC50 data, which are given here for 23 compounds.

This test has as its target T1, P2X7 (UniProt Q99572).
T1 sequence (Q99572 1-595): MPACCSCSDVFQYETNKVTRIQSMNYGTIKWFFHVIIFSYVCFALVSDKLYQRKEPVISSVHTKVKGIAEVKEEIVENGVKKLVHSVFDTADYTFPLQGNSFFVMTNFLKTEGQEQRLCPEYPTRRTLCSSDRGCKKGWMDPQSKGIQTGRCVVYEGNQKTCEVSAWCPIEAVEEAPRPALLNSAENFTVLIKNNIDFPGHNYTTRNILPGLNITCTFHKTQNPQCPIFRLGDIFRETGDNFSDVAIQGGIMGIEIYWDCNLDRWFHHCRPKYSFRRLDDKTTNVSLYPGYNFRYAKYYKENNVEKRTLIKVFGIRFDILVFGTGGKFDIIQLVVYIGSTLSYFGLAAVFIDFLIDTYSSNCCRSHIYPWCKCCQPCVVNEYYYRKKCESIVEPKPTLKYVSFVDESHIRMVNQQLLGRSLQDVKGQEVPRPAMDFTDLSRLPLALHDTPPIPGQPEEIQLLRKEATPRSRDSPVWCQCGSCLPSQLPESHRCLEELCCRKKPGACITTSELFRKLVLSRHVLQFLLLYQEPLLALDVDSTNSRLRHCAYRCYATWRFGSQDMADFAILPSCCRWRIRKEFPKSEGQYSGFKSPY
In words: P2X7 activity of Table 1. Particulars: pIC50 values for P2X7. It counts as cell-based. The essentials:
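FLIPR calcium flux with fluo-3 in 1321N1 cells expressing human P2X7 and HEK293 cells expressing rat P2X7, in HBSS with 2 mM CaCl2 and 2.5 mM probenecid. Antagonist pre-incubated 20 min at room temperature, then BzATP added (100 μM human, 5 μM rat). Peak response over 5 min normalised to 5 μM ionomycin.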

For `Cc1ccc(-c2ccnn(C)c2=O)cc1NC(=O)C1=CNC(=O)C[C@H]1c1cccc(F)c1` [Compound 109, (S)-4-(3-Fluoro-phenyl)-6-oxo-1,4,5,6-tetrahydro-pyridine-3-carboxylic acid [2-methyl-5-(2-methyl-3-oxo-2,3-dihydro-pyridazin-4-yl)-phenyl]-amide], the negative-log IC50 (pIC50) (as a rule, −log10 of the IC50, conventionally taken in molar units) amounted to 8.045.

Compound `Cc1ccc(-n2ncccc2=O)cc1NC(=O)C1=CN(C)C(=O)C[C@H]1c1ccc(F)cc1` [Compound 110, (S)-4-(4-Fluoro-phenyl)-1-methyl-6-oxo-1,4,5,6-tetrahydro-pyridine-3-carboxylic acid [2-methyl-5-(6-oxo-6H-pyridazin-1-yl)-phenyl]-amide] came in with a pIC50 of 7.17.

On to `Cc1ccc(-c2cc(C(F)(F)F)n(CCO)n2)cc1NC(=O)C1=CN(C)C(=O)C[C@H]1c1cccc(F)c1` [Compound 111, (S)-4-(3-Fluoro-phenyl)-1-methyl-6-oxo-1,4,5,6-tetrahydro-pyridine-3-carboxylic acid {5-[1-(2-hydroxy-ethyl)-5-trifluoromethyl-1H-pyrazol-3-yl]-2-methyl-phenyl}-amide], for which the pIC50 was determined as 6.895.

In turn, `Cc1ccc(-c2ccn(CCO)n2)cc1NC(=O)C1=CN(C)C(=O)C[C@H]1c1cccc(F)c1` [Compound 112, (S)-4-(3-Fluoro-phenyl)-1-methyl-6-oxo-1,4,5,6-tetrahydro-pyridine-3-carboxylic acid {5-[1-(2-hydroxy-ethyl)-1H-pyrazol-3-yl]-2-methyl-phenyl}-amide] had a pIC50 of 7.645.

As for `Cc1cc(-c2ccc(Cl)c(NC(=O)C3=CN(C)C(=O)C[C@H]3c3ccc(F)cc3)c2)nn1CCO` [Compound 115, (S)-4-(4-Fluoro-phenyl)-1-methyl-6-oxo-1,4,5,6-tetrahydro-pyridine-3-carboxylic acid {2-chloro-5-[1-(2-hydroxy-ethyl)-5-methyl-1H-pyrazol-3-yl]-phenyl}-amide], the pIC50 worked out at 7.04.

The compound `Cc1ccc(-c2ccc[nH]c2=O)cc1NC(=O)C1=CN(C)C(=O)C[C@H]1c1ccc(F)cc1` [Compound 116, (S)-4-(4-Fluoro-phenyl)-1-methyl-6-oxo-1,4,5,6-tetrahydro-pyridine-3-carboxylic acid [2-methyl-5-(2-oxo-1,2-dihydro-pyridin-3-yl)-phenyl]-amide] returned a negative-log IC50 (pIC50) of 7.565.

In the case of `COc1ccc(-c2ccc(C)c(NC(=O)C3=CN(C)C(=O)C[C@H]3c3ccc(F)cc3)c2)nn1` [Compound 117, (S)-4-(4-Fluoro-phenyl)-1-methyl-6-oxo-1,4,5,6-tetrahydro-pyridine-3-carboxylic acid [5-(6-methoxy-pyridazin-3-yl)-2-methyl-phenyl]-amide], the pIC50 stood at 7.22.

Compound `Cc1ccc(-c2ccc(=O)[nH]n2)cc1NC(=O)C1=CN(C)C(=O)C[C@H]1c1ccc(F)cc1` [Compound 118, (S)-4-(4-Fluoro-phenyl)-1-methyl-6-oxo-1,4,5,6-tetrahydro-pyridine-3-carboxylic acid [2-methyl-5-(6-oxo-1,6-dihydro-pyridazin-3-yl)-phenyl]-amide] showed a negative logarithm of the IC50 (pIC50) of 6.585.

As for `Cc1ccc(-c2cc(C)n(CC(=O)NCCN(C)C)n2)cc1NC(=O)C1=CNC(=O)C[C@H]1c1ccc(F)cc1` [Compound 119, (S)-4-(4-Fluoro-phenyl)-6-oxo-1,4,5,6-tetrahydro-pyridine-3-carboxylic acid (5-{1-[(2-dimethylamino-ethylcarbamoyl)-methyl]-5-methyl-1H-pyrazol-3-yl}-2-methyl-phenyl)-amide], the pIC50 is listed as 7.685.

In turn, `Cc1ccc(-c2cccn(C)c2=O)cc1NC(=O)C1=CN(C)C(=O)C[C@H]1c1ccc(F)cc1` [Compound 120, (S)-4-(4-Fluoro-phenyl)-1-methyl-6-oxo-1,4,5,6-tetrahydro-pyridine-3-carboxylic acid [2-methyl-5-(1-methyl-2-oxo-1,2-dihydro-pyridin-3-yl)-phenyl]-amide] displayed a negative-log IC50 (pIC50) of 7.855.

`Cc1ccc(-c2ccc(=O)n(CCO)n2)cc1NC(=O)C1=CNC(=O)C[C@H]1c1ccc(F)cc1` [Compound 121, (S)-4-(4-Fluoro-phenyl)-6-oxo-1,4,5,6-tetrahydro-pyridine-3-carboxylic acid {5-[1-(2-hydroxy-ethyl)-6-oxo-1,6-dihydro-pyridazin-3-yl]-2-methyl-phenyl}-amide] had a pIC50 of 7.385.

`Cc1ccc(=O)n(-c2ccc(C)c(NC(=O)C3=CNC(=O)C[C@H]3c3ccc(F)cc3)c2)c1` [Compound 122, (S)-4-(4-Fluoro-phenyl)-6-oxo-1,4,5,6-tetrahydro-pyridine-3-carboxylic acid [2-methyl-5-(5-methyl-2-oxo-2H-pyridin-1-yl)-phenyl]-amide] had a pIC50 of 8.26.

Regarding `CN1C=C(C(=O)Nc2cc(-c3ccn[nH]c3=O)ccc2F)[C@H](c2ccc(F)cc2)CC1=O` [Compound 123, (S)-4-(4-Fluoro-phenyl)-1-methyl-6-oxo-1,4,5,6-tetrahydro-pyridine-3-carboxylic acid [2-fluoro-5-(3-oxo-2,3-dihydro-pyridazin-4-yl)-phenyl]-amide], the negative-log IC50 (pIC50) was found to be 7.58.

The compound `Cc1ccc(-n2ccc(=O)[nH]c2=O)cc1NC(=O)C1=CN(C)C(=O)C[C@H]1c1ccc(F)cc1` [Compound 124, (S)-4-(4-Fluoro-phenyl)-1-methyl-6-oxo-1,4,5,6-tetrahydro-pyridine-3-carboxylic acid [5-(2,4-dioxo-3,4-dihydro-2H-pyrimidin-1-yl)-2-methyl-phenyl]-amide] yielded a negative-log IC50 (pIC50) of 6.44.

`Cc1cc(Cl)c(-n2ncccc2=O)cc1NC(=O)C1=CNC(=O)C[C@H]1c1ccc(F)cc1` [Compound 125, (S)-4-(4-Fluoro-phenyl)-6-oxo-1,4,5,6-tetrahydro-pyridine-3-carboxylic acid [4-chloro-2-methyl-5-(6-oxo-6H-pyridazin-1-yl)-phenyl]-amide] displayed a pIC50 of 7.606.

On to `COC[C@H](O)Cn1nc(-c2ccc(C)c(NC(=O)C3=CN(C)C(=O)C[C@H]3c3ccc(F)cc3)c2)ccc1=O` [Compound 126, (S)-4-(4-Fluoro-phenyl)-1-methyl-6-oxo-1,4,5,6-tetrahydro-pyridine-3-carboxylic acid {5-[1-((R)-2-hydroxy-3-methoxy-propyl)-6-oxo-1,6-dihydro-pyridazin-3-yl]-2-methyl-phenyl}-amide], for which the pIC50 is reported as 7.615.

For the compound `Cc1cc(Cl)c(-c2ccnn(C)c2=O)cc1NC(=O)C1=CNC(=O)C[C@H]1c1ccc(F)cc1` [Compound 127, (S)-4-(4-Fluoro-phenyl)-6-oxo-1,4,5,6-tetrahydro-pyridine-3-carboxylic acid [4-chloro-2-methyl-5-(2-methyl-3-oxo-2,3-dihydro-pyridazin-4-yl)-phenyl]-amide], the pIC50 was determined as 7.843.

Turning to `Cc1ccc(-c2ccnn(C)c2=O)cc1NC(=O)C1=CN(CC(=O)N(C)C)C(=O)C[C@H]1c1ccc(F)cc1` [Compound 128, (S)-1-Dimethylcarbamoylmethyl-4-(4-fluoro-phenyl)-6-oxo-1,4,5,6-tetrahydro-pyridine-3-carboxylic acid [2-methyl-5-(2-methyl-3-oxo-2,3-dihydro-pyridazin-4-yl)-phenyl]-amide], the pIC50 was 7.195.

`Cc1ccc(-n2cc(C)c(=O)[nH]c2=O)cc1NC(=O)C1=CN(C)C(=O)C[C@H]1c1ccc(F)cc1` [Compound 129, (S)-4-(4-Fluoro-phenyl)-1-methyl-6-oxo-1,4,5,6-tetrahydro-pyridine-3-carboxylic acid [2-methyl-5-(5-methyl-2,4-dioxo-3,4-dihydro-2H-pyrimidin-1-yl)-phenyl]-amide] had a negative-log IC50 (pIC50) of 7.945.

For `Cc1cc(F)c(-c2ccnn(C)c2=O)cc1NC(=O)C1=CN(C)C(=O)C[C@H]1c1ccc(F)cc1` [Compound 130, (S)-4-(4-Fluoro-phenyl)-1-methyl-6-oxo-1,4,5,6-tetrahydro-pyridine-3-carboxylic acid [4-fluoro-2-methyl-5-(2-methyl-3-oxo-2,3-dihydro-pyridazin-4-yl)-phenyl]-amide], the negative-log IC50 (pIC50) is given as 7.864.

`CCn1c(=O)cnn(-c2ccc(C)c(NC(=O)C3=CN(C)C(=O)C[C@H]3c3ccc(F)cc3)c2)c1=O` [Compound 131, (S)-4-(4-Fluoro-phenyl)-1-methyl-6-oxo-1,4,5,6-tetrahydro-pyridine-3-carboxylic acid [5-(4-ethyl-3,5-dioxo-4,5-dihydro-3H-[1,2,4]triazin-2-yl)-2-methyl-phenyl]-amide] came in with a negative logarithm of the IC50 (pIC50) of 7.42.

For the compound `Cc1ccc(-n2ccc(=O)n(C)c2=O)cc1NC(=O)C1=CN(C)C(=O)C[C@H]1c1ccc(F)cc1` [Compound 132, (S)-4-(4-Fluoro-phenyl)-1-methyl-6-oxo-1,4,5,6-tetrahydro-pyridine-3-carboxylic acid [2-methyl-5-(3-methyl-2,4-dioxo-3,4-dihydro-2H-pyrimidin-1-yl)-phenyl]-amide], the pIC50 turned out to be 6.015.

Consider `Cc1ccc(-n2ccc(=O)n(C)c2=O)cc1NC(=O)C1=CNC(=O)C[C@H]1c1ccc(F)cc1` [Compound 133, (S)-4-(4-Fluoro-phenyl)-6-oxo-1,4,5,6-tetrahydro-pyridine-3-carboxylic acid [2-methyl-5-(3-methyl-2,4-dioxo-3,4-dihydro-2H-pyrimidin-1-yl)-phenyl]-amide], for which the negative logarithm of the IC50 (pIC50) turned out to be 7.24.
